ChEMBL document CHEMBL5620384, “6-Regioisomeric 5,8-quinolinediones as potent CDC25 inhibitors against colorectal cancers” (Eur J Med Chem, 2023)
The source made the active and inactive calls. The calls are words filed in the database; no cut-off is given here.

Tests used:
MDA-MB-231 [1] = test: Cytotoxicity against human MDA-MB-231 cells assessed as growth inhibition after 72 hrs by MTS assay; format: functional, cell-based; details: MDA-MB-231, 72 h
HCT-116 [2] = test: Induction of apoptosis in human HCT-116 cells assessed as reduction in number of cells at G1 phase at 1 uM measured after 72 hrs by flow cytometry; format: functional, cell-based
HCT-116 [3] = test: Effect on cell cycle progression in thymidine synchronized human HCT-116 cells assessed as prevention of cells entering from mitosis in presence of colchicine at 2 uM by Western blot analysis; format: functional, cell-based
HCT-116 [4] = test: Effect on cell cycle progression in thymidine synchronized human HCT-116 cells assessed as increase in MPM2 phosphorylation in presence of 0.2 uM of colchicine at 2 uM by Western blot analysis; format: functional, cell-based
HCT-116 [5] = test: Effect on cell cycle progression in thymidine synchronized human HCT-116 cells assessed as increase in cyclin B1 phosphorylation in presence of 0.2 uM of colchicine at 2 uM by Western blot analysis; format: functional, cell-based
MCF7 = test: Cytotoxicity against human MCF7 cells assessed as cell survival measured at 2 uM after 72 hrs by MTS assay relative to control; format: functional; details: read-out: Activity
HCT-116 [6] = test: Induction of apoptosis in human HCT-116 cells assessed as reduction in number of cells at G2/M phase at 1 uM measured after 72 hrs by flow cytometry; format: functional, cell-based
HCT-116 [7] = test: Effect on cell cycle progression in thymidine synchronized human HCT-116 cells assessed as increase in histone H3 phosphorylation in presence of 0.2 uM of colchicine at 2 uM by Western blot analysis; format: functional, cell-based
DLD-1 [8] = test: Induction of cell cycle arrest in human DLD-1 cells assessed as reduced progression of G2/M phase (T12) at 2 uM measured upto 24 hrs by flow cytometry; format: functional, cell-based
SW480 = test: Cytotoxicity against human SW480 cells assessed as cell survival measured at 2 uM after 72 hrs by MTS assay relative to control; format: functional; details: read-out: Activity
DLD-1 [9] = test: Cytotoxicity against human DLD1 cells assessed as growth inhibition after 72 hrs by MTS assay; format: functional, cell-based; details: DLD-1, 72 h
HCT-116 [10] = test: Reduction in mitotic exit in human HCT-116 cells at 2 uM measured upto 24 hrs by flow cytometry; format: functional, cell-based
U-87 MG = test: Cytotoxicity against human U-87 MG cells assessed as cell survival measured at 2 uM after 72 hrs by MTS assay relative to control; format: functional, U-87MG ATCC; details: read-out: Activity
DLD-1 [11] = test: Induction of cell cycle arrest in human DLD-1 cells assessed as reduced progression of S phase (T8) at 2 uM measured upto 24 hrs by flow cytometry; format: functional, cell-based
DLD-1 [12] = test: Cytotoxicity against human DLD-1 cells assessed as cell survival measured at 2 uM after 72 hrs by MTS assay relative to control; format: functional; details: read-out: Activity
MDA-MB-231 [13] = test: Cytotoxicity against human MDA-MB-231 cells assessed as cell survival measured at 2 uM after 72 hrs by MTS assay relative to control; format: functional; details: read-out: Activity
HCT-116 [14] = test: Cytotoxicity against human HCT-116 cells assessed as cell survival measured at 2 uM after 72 hrs by MTS assay relative to control; format: functional; details: read-out: Activity
HCT-116 [15] = test: Induction of apoptosis in human HCT-116 cells assessed as reduction in number of cells at S phase at 1 uM measured after 72 hrs by flow cytometry; format: functional, cell-based
HCT-116 [16] = test: Induction of DNA damaging in human HCT-116 cells assessed as RPA2 phosphorylation at S4/S8 at 2 uM measured upto 8 hrs by Western blot analysis; format: functional, cell-based
HCT-116 [17] = test: Induction of apoptosis in human HCT-116 cells assessed as increase in caspase 8 at 1 uM measured after 72 hrs by flow cytometry; format: functional, cell-based
HCT-116 [18] = test: Induction of cell cycle arrest in human HCT-116 cells assessed as cells accumulation at G2/M phase (T10-T24) at 2 uM measured upto 24 hrs by flow cytometry; format: functional, cell-based
HCT-116 [19] = test: Induction of apoptosis in human HCT-116 cells assessed as increase in number of cells at sub-G1 phase measured after 72 hrs by flow cytometry; format: functional, cell-based; details: dose 1-4 µM
[20] = Cytotoxicity against human M10 cells assessed as growth inhibition after 72 hrs by MTS assay; format: toxicity, cell-based
HCT-116 [21] = test: Effect on cell cycle progression in thymidine synchronized human HCT-116 cells assessed as suppression of CDK1 dephosphorylation in presence of colchicine at 2 uM by Western blot analysis; format: functional, cell-based
HCT-116 [22] = test: Suppression of histone H4 methylation at K20 (H4K20me1) in thymidine synchronized human HCT-116 cells at 2 uM measured upto 8 hrs by Western blot analysis; format: functional, cell-based
HCT-116 [23] = test: Induction of DNA damaging in human HCT-116 cells assessed as H4K20 methylation at 2 uM measured upto 8 hrs by Western blot analysis; format: functional, cell-based
HCT-116 [24] = test: Induction of cell cycle arrest in human HCT-116 cells assessed as cells accumulation at S to G2 phase (T6-T8) at 2 uM measured upto 24 hrs by flow cytometry; format: functional, cell-based
[25] = Cytotoxicity against human CCD-841CoN cells assessed as growth inhibition after 72 hrs by MTS assay; format: toxicity, cell-based
HCT-116 [26] = test: Induction of apoptosis in human HCT-116 cells assessed as increase in caspase 9 at 1 uM measured after 72 hrs by flow cytometry; format: functional, cell-based
[27] = Cytotoxicity against human MRC5 cells assessed as growth inhibition after 72 hrs by MTS assay; format: toxicity, cell-based
HCT-116 [28] = test: Induction of apoptosis in human HCT-116 cells assessed as increase in caspase 3 at 1 uM measured after 72 hrs by flow cytometry; format: functional, cell-based
HCT-116 [29] = test: Induction of DNA damaging in human HCT-116 cells assessed as CDK1Y15 dephosphorylation at 2 uM measured upto 8 hrs by Western blot analysis; format: functional, cell-based
HCT-116 [30] = test: Induction of DNA damaging in human HCT-116 cells assessed as CHK2 phosphorylation at T68 at 2 uM measured upto 8 hrs by Western blot analysis; format: functional, cell-based
HCT-116 [31] = test: Induction of DNA damaging in human HCT-116 cells assessed as RPA2 phosphorylation at S33 at 2 uM measured upto 8 hrs by Western blot analysis; format: functional, cell-based
HCT-116 [32] = test: Induction of DNA damaging in human HCT-116 cells assessed as KAP-1 phosphorylation at S824 at 2 uM measured upto 8 hrs by Western blot analysis; format: functional, cell-based
HCT-116 [33] = test: Induction of DNA damaging in human HCT-116 cells assessed as CHK1 phosphorylation at S345 at 2 uM measured upto 8 hrs by Western blot analysis; format: functional, cell-based
[34] = Cytotoxicity against human HEL 299 cells assessed as growth inhibition after 72 hrs by MTS assay; format: toxicity, cell-based
HCT-116 [35] = test: Induction of apoptosis in human HCT-116 cells assessed as decrease in MCL1 expression at 1 uM measured after 72 hrs by flow cytometry; format: functional, cell-based

SMILES	IC50 (MDA-MB-231 [1]) [nM]	Activity (HCT-116 [2])	Activity (HCT-116 [3])	viability at 2 µM (MCF7) [%]	Activity (HCT-116 [6])	viability at 2 µM (SW480) [%]	IC50 (DLD-1 [9]) [nM]	viability at 2 µM (U-87 MG) [%]	Activity (DLD-1 [11])	viability at 2 µM (DLD-1 [12]) [%]	viability at 2 µM (MDA-MB-231 [13]) [%]	viability at 2 µM (HCT-116 [14]) [%]	Activity (HCT-116 [15])	further results
O=C1C(Cl)=C(NCCN2CCOCC2)C(=O)c2ncccc21	> 2000	inactive	Active	79.6	inactive	93.9	> 2000	82	Active	82	94.4	61.8	inactive	Activity (HCT-116 [4]): Active; Activity (HCT-116 [5]): Active; Activity (HCT-116 [7]): Active; Activity (DLD-1 [8]): Active; Activity (HCT-116 [10]): Active
O=C1C(NCCN2CCOCC2)=C(Cl)C(=O)c2ncccc21	440	Active	Active	36.3	Active	16.7	590	28	Active	1.86	93.2	0.85	Active	Activity (HCT-116 [16]): Active; Activity (HCT-116 [17]): Active; Activity (HCT-116 [18]): Active; Activity (HCT-116 [19]): Dose-Dependent Effect; IC50 at 72 h [20]: > 2000 nM; Activity (HCT-116 [21]): Active; Activity (HCT-116 [22]): Active; Activity (HCT-116 [23]): Active; Activity (HCT-116 [24]): Active; IC50 at 72 h [25]: > 2000 nM; Activity (HCT-116 [26]): Active; IC50 at 72 h [27]: > 2000 nM; Activity (HCT-116 [28]): Active; Activity (HCT-116 [29]): Active; Activity (HCT-116 [30]): Active; Activity (HCT-116 [31]): Active; Activity (HCT-116 [32]): Active; Activity (HCT-116 [33]): Active; IC50 at 72 h [34]: > 2000 nM; Activity (HCT-116 [35]): Active
